Measurements as given in patent US9226929B2, “Pharmaceutically active disubstituted triazine derivatives” (Bayer Intellectual Property GMBH, priority 2011, dated 2016).
pIC50, pKd: −log10 of the molar value.

Experiments:
CDK9/Cyclin T1 = target: T1, CDK9/Cyclin T1 (Homo sapiens, UniProt P50750); assay: LanthaScreen Eu Kinase Binding Assay, CDK9/Cyclin T1; settings: tracer 236, read-out: CDK9/Cyclin T1 (activity range), Kd
T1 construct: His; purchased Invitrogen
Outline: (§1)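 TR-FRET displacement of an Alexa Fluor 647 active-site tracer, detected with a Eu anti-GST antibody, over an 8-point 1:3 compound series. Tracer was set at its Kd (30 nM for CDK2/Cyclin A, CDK7 and CDK9/Cyclin T1; 35 nM for CDK9/Cyclin K). Read after 1 h at room temperature; Kd was fitted from sigmoidal curves.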

CDK7/CyclinH/MAT1 = target: T2, CDK7/CyclinH/MAT1 (Homo sapiens, UniProt P50613); assay: LanthaScreen Eu Kinase Binding Assay, CDK7; settings: tracer 236, read-out: CDK7 (activity range), Kd
T2 construct: His; purchased Carna Biosciences
Outline: as §1

CDK9 = target: T3, CDK9 (Homo sapiens, UniProt P50750); assay: Lance Ultra KinaSelect Assay, CDK9; format: biochemical; settings: cyclin partner (T1 or K) not stated; read-out: CDK9 LANCE assay (activity range), IC50
T3 construct: purchased Invitrogen
Description: 2. Measurement of half maximal inhibitory concentration to CDKs This protocol describes how the Lance Ultra KinaSelect Assay was performed to determine half maximal inhibitory concentration (1050) of compounds of general formula (I) and CDK/Cyclin complexes. The principle behind this enzymatic assay is based upon the phosphorylation of the ULight-Peptide Substrat. It is detected by using a specific
EU-labeled anti-phospho peptide antibody. The binding of the Eu-labeled anti-phospho peptide antibody to the phosphorylated ULight labeled peptide gives rise to a FRET-signal. Binding of an inhibitor to the kinase prevents phosphorylation of the ULight-MBP Substrat, resulting in a loss of FRET.
The compounds of general formula (I) summarized in Table 5 were diluted from a 10 mM DMSO stock solution 1:10 in a total volume of 15 μL DMSO. This compound predilution was then serial diluted 1:3 over 8 steps in DMSO and briefly spun down. Each compound solution was now diluted 1:20 in Enzymatic Buffer (HEPES: 50 mM, pH: 7.5; MgCl2: 10 mM; EGTA: 1 mM; DTT: 2 mM; Tween-20: 0.01%), mixed thoroughly and spun down. For every sample, 2 μL of the diluted compound were mixed with 6 μL CDK/Cyclin/Substrat solution and 2 μL ATP solution in a well of a small volume 384 well plate (Corning Incorporated, Corning, N.Y., USA; order no. 3673). The CDK/Cyclin was diluted to the appropriate concentration (see Table 3) and the ATP concentration was adjusted to its […] for the CDK/Cyclin, which was 3 μM for CDK2/Cyclin A, 20 μM for CDK1/Cyclin B1, 25 μM for CDK7/Cyclin H and CDK9/Cyclin T1, 55 μM for CDK6/Cyclin D3, 90 μM for CDK4/Cyclin D1 and 125 μM for CDK9/Cyclin K. For negative controls, in each well 2 μL of DMSO solution (1% final DMSO assay concentration) was mixed with 6 μL substrate solution (50 nM ULight MBP final assay concentration) and 2 μL ATP solution (appropriate final concentration see Table 3). For positive controls, in each well 2 μL of DMSO solution (1% final DMSO assay concentration) was mixed with 6 μL CDK/Cyclin/Substrat (appropriate final concentration see Table 3) and 2 μL Tracer ATP solution (appropriate final concentration see Table 3). Positive and negative controls were calculated from at least 8 different sample wells. The 384 well plates were mixed in a Teleshaker plate mixer (Beckman Coulter, Brea, Calif., USA) at 2000 rpm for 40 sec, and incubated for 1 h at room temperature. Before reading, 10 μL the detection buffer (Lance Detection Buffer 1×; EDTA: […]; Eu-Anti-P-MBP: see Table 3) was added. The FRET signal was measured at 340 nm excitation, 665 nm and 615 nm emission (for the kinase tracer and LanthaScreen Eu-AB, respectively) with an Envision spectrophotometer (Perkin Elmer, Waltham, Mass., USA) with 50 μs delay and 300 μs integration time. IC50 values were determined from the sigmoidal dose response curves with the software Quattro Workflow (Quattro GmbH, Munich, Germany).

T2 sequence (P50613 whole entry): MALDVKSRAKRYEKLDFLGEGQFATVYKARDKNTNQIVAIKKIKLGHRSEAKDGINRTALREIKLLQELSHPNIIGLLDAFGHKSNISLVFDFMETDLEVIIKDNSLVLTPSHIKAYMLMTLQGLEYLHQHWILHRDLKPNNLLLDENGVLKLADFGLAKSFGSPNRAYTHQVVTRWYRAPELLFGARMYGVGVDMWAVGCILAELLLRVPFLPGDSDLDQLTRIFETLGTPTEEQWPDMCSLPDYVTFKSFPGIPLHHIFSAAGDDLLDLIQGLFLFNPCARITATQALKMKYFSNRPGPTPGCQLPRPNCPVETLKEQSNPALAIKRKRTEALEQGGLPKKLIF
T2 sequence (P51946 whole entry partner): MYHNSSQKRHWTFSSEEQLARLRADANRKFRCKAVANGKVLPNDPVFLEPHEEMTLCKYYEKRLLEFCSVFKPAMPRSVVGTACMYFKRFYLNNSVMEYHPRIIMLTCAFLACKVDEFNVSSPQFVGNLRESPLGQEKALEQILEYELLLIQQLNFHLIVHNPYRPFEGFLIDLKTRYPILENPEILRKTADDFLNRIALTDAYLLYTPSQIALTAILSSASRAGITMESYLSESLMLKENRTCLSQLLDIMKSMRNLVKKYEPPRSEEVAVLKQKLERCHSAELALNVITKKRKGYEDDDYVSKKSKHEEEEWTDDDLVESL
T2 sequence (P51948 whole entry partner): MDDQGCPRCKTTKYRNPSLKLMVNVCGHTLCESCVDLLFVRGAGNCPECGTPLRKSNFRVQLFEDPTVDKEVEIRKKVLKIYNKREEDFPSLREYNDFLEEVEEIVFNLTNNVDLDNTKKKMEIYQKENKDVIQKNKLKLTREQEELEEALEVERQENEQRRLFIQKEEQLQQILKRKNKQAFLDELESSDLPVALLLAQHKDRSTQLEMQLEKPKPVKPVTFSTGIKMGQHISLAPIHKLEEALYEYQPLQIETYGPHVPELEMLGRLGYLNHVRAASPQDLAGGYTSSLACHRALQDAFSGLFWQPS
T3 sequence (P50750 whole entry): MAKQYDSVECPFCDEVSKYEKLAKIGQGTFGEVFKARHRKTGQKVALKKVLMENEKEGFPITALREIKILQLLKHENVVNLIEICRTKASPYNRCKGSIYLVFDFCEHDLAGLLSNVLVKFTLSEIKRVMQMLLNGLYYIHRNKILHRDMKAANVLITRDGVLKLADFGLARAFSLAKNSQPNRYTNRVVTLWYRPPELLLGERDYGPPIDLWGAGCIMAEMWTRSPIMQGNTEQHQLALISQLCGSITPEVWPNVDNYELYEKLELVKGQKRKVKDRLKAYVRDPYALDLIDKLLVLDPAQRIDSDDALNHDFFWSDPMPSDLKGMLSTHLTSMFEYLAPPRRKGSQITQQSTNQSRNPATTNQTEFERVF
T1 sequence (P50750 whole entry): as above
T1 sequence (O60563 whole entry partner): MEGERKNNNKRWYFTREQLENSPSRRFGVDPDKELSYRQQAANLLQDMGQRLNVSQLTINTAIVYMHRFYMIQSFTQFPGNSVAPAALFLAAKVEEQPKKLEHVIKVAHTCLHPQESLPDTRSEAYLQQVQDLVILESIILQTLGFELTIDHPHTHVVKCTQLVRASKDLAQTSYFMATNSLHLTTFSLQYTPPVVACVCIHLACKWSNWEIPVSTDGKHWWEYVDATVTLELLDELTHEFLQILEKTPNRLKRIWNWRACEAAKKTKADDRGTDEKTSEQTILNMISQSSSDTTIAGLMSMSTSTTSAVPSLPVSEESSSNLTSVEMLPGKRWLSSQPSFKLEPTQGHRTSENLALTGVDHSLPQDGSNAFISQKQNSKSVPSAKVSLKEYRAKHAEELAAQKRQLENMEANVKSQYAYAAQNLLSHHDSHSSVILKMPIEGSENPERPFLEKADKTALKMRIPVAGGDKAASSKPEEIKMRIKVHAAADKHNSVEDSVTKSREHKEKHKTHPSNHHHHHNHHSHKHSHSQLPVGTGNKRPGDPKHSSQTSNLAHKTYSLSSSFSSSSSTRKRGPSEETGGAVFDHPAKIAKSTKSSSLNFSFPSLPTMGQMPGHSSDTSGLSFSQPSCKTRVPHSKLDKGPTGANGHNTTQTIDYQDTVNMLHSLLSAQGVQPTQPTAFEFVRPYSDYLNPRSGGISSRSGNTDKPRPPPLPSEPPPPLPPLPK

Row | pKd (CDK9/Cyclin T1) | pKd (CDK7/CyclinH/MAT1) | pIC50 (CDK9) | Compound
1 | > 7.00 | < 5.00 | 6.00 to 7.00 | COC(=O)[C@H]1CCCN1c1ncnc(Nc2cccc(CS(N)(=O)=O)c2)n1 [Compound B21, (R)-Methyl 1-[4-((3-(Sulfamoylmethyl)phenyl)amino)-1,3,5-triazin-2-yl]pyrrolidine-2-carboxylate]
2 | > 7.00 | 5.00 to 6.00 | > 7.00 | NS(=O)(=O)Cc1cccc(Nc2ncnc(N3CCc4nc[nH]c4C3)n2)c1 [Compound B44, 3-[(4-(6,7-Dihydro-3H-imidazo[4,5-c]pyridin-5(4H)-yl)-1,3,5-triazin-2-yl)amino]benzenemethanesulfonamide]
3 | > 7.00 | 5.00 to 6.00 | > 7.00 | NS(=O)(=O)Cc1cccc(Nc2ncnc(N3CCc4ncccc4C3)n2)c1 [Compound B38, 3-[(4-(7,8-Dihydro-1,6-naphthyridin-6(5H)-yl)-1,3,5-triazin-2-yl)amino]-benzenemethanesulfonamide]
4 | > 7.00 | < 5.00 | 6.00 to 7.00 | COC[C@H]1CCCN1c1ncnc(Nc2cccc(CS(N)(=O)=O)c2)n1 [Compound B17, (R)-3-[(4-(2-(Methoxymethyl)pyrrolidin-1-yl)-1,3,5-triazin-2-yl)amino]benzenemethanesulfonamide]
5 | > 7.00 | < 5.00 | 6.00 to 7.00 | NS(=O)(=O)Cc1cccc(Nc2ncnc(N3CCCC3c3ccccc3)n2)c1 (racemic) [Compound B33, rac-3-[(4-(2-Phenylpyrrolidin-1-yl)-1,3,5-triazin-2-yl)amino]-benzenemethanesulfonamide]
6 | > 7.00 | 5.00 to 6.00 | > 7.00 | NS(=O)(=O)Cc1cccc(Nc2ncnc(N3Cc4cn[nH]c4C3)n2)c1 [Compound B51, 3-[(4-(Pyrrolo[3,4-c]pyrazol-5(1H,4H,6H)-yl)-1,3,5-triazin-2-yl)amino]-benzenemethanesulfonamide]
7 | > 7.00 | 5.00 to 6.00 | > 7.00 | NS(=O)(=O)Cc1cccc(Nc2ncnc(N3CCc4ncsc4C3)n2)c1 [Compound B45, 3-[(4-(6,7-Dihydrothiazolo[5,4-c]pyridin-5(4H)-yl)-1,3,5-triazin-2-yl)amino]benzenemethanesulfonamide]
8 | 6.00 to 7.00 | < 5.00 | 5.00 to 6.00 | NS(=O)(=O)Cc1cccc(Nc2ncnc(N3CCCCC3)n2)c1 [Compound B1, 3-[(4-(Piperidin-1-yl)-1,3,5-triazin-2-yl)amino]benzenemethane sulfonamide]
9 | > 7.00 | 6.00 to 7.00 | > 7.00 | NS(=O)(=O)Cc1cccc(Nc2ncnc(N3CCCn4nccc43)n2)c1 [Compound B47, 3-[(4-(6,7-Dihydropyrazolo[1,5-a]pyrimidin-4(5H)-yl)-1,3,5-triazin-2-yl)amino]benzenemethanesulfonamide]
